In PubChem BioAssay (NCI) one finds GI50 and TGI data, which are given here for 13 compounds.

Molecules are shown by their SMILES.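 Step 1: Grow cells in 96-well plates. Step 2: Expose to compound for 48 hours at 5 concentrations. Step 3: Interpolate endpoints linearly; if unreached, use highest concentration. At the GI50, growth is halved. The concentration for full growth arrest is given as TGI.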

Among the test systems are NCI-H226 lung; MALME-3M melanoma; EKVX NSCLC; SF-268 CNS; SF-539 CNS; NCI-H460 lung.
Holding throughout (assay): NCI tumour cell line growth inhibition, 48 h

For the compound `CC1(C)N=C(N)N=C(N)N1c1cc(Cl)ccc1Cl`, the GI50 in the test on NCI-H226 lung is greater than 100 µM; in the test on MALME-3M melanoma, 59.1 µM; in the test on EKVX NSCLC, greater than 100 µM; with SF-268 CNS, greater than 100 µM; in the test on SF-539 CNS it was greater than 100 µM; with NCI-H460 lung it was 60.6 µM. For the same compound, the TGI in the test on NCI-H226 lung, with MALME-3M melanoma, in the test on EKVX NSCLC, in the test on SF-268 CNS, in the test on SF-539 CNS and with NCI-H460 lung was greater than 100 µM in each case.
On to `O=C(Nc1ccc(Cl)cc1)c1cc2ccccc2cc1O`, for which the GI50 is 2.59 µM with NCI-H226 lung; 1.67 µM in the test on MALME-3M melanoma; 2.98 µM in the test with EKVX NSCLC; 3.68 µM in the test on SF-268 CNS; 4.01 µM with SF-539 CNS; 2.67 µM with NCI-H460 lung. The TGI in the test on NCI-H226 lung is 82.2 µM; in the test on MALME-3M melanoma, 95.6 µM; in the test on EKVX NSCLC, greater than 100 µM; with SF-268 CNS it was greater than 100 µM; with SF-539 CNS it was greater than 100 µM; in the test with NCI-H460 lung, greater than 100 µM.
Regarding `COc1nc(C)cc2c(=O)n(-c3ccccc3)n(CCCN3CCN(c4ccc(Cl)cc4)CC3)c(=O)c12`, the GI50 is greater than 50 µM in the test with NCI-H226 lung; greater than 50 µM with MALME-3M melanoma; greater than 50 µM in the test on EKVX NSCLC; 37.7 µM in the test on SF-268 CNS; greater than 50 µM with SF-539 CNS; 24.6 µM in the test on NCI-H460 lung. The TGI with NCI-H226 lung, with MALME-3M melanoma, with EKVX NSCLC, with SF-268 CNS, in the test with SF-539 CNS and with NCI-H460 lung was greater than 50 µM throughout.
For the compound `O=C(Oc1ccc(CCl)cc1)c1ccccc1`, the GI50 with NCI-H226 lung is 0.185 µM; with MALME-3M melanoma, 0.127 µM; in the test on EKVX NSCLC it was 0.531 µM; with SF-268 CNS, 0.17 µM; with SF-539 CNS, 0.152 µM; in the test with NCI-H460 lung, 0.238 µM. For the same compound, the TGI in the test with NCI-H226 lung was found to be 0.437 µM; with MALME-3M melanoma it was 0.274 µM; in the test with EKVX NSCLC, 1.79 µM; in the test on SF-268 CNS, 0.326 µM; in the test with SF-539 CNS, 0.286 µM; in the test with NCI-H460 lung, 1.09 µM.
In the case of `COC(=O)Nc1nc2ccccc2c(=O)[nH]1`, the TGI in the test on NCI-H226 lung, in the test on MALME-3M melanoma, in the test on EKVX NSCLC, in the test with SF-268 CNS, with SF-539 CNS and in the test with NCI-H460 lung was greater than 100 µM throughout.
As for `S=C(Nc1ccc(Cl)cc1)Nc1ccc(-c2nc3ccccc3[nH]2)cc1`, the GI50 with NCI-H226 lung is 10 µM; in the test with MALME-3M melanoma, 7.19 µM; with EKVX NSCLC, 13.3 µM; in the test on SF-268 CNS, 12.2 µM; with SF-539 CNS, 5.27 µM; in the test on NCI-H460 lung, 9.28 µM. In addition, the TGI with NCI-H226 lung was greater than 46.6 µM; in the test on MALME-3M melanoma, 32.1 µM; with EKVX NSCLC, 52.5 µM; in the test with SF-268 CNS, greater than 68.7 µM; in the test with SF-539 CNS it was 13.5 µM; in the test on NCI-H460 lung it was greater than 43.4 µM.
With `C[C@H]1CCC/C=C/[C@@H]2C[C@H](O)C[C@H]2[C@H](O)[C@@H](S(=O)CCN(C)C)CC(=O)O1` (stereo partly specified), the GI50 in the test with NCI-H226 lung was 0.0562 µM; with MALME-3M melanoma, 0.174 µM; with EKVX NSCLC, 0.384 µM; in the test with SF-268 CNS, 0.0564 µM; in the test with SF-539 CNS, 0.151 µM; in the test with NCI-H460 lung, 0.351 µM. For the same compound, the TGI in the test with NCI-H226 lung was greater than 100 µM; in the test on MALME-3M melanoma, 0.42 µM; with SF-539 CNS, greater than 100 µM; in the test with NCI-H460 lung it was greater than 100 µM.
As for `C=C(CN1CCc2ccccc2C1)c1ccc(C(=O)Nc2ccc(N)cc2)cc1`, the GI50 in the test with NCI-H226 lung is 58.5 µM; with MALME-3M melanoma it was 18.3 µM; in the test on EKVX NSCLC, 22.4 µM; in the test on SF-268 CNS it was 23.5 µM; with SF-539 CNS, 19.3 µM; with NCI-H460 lung, 27.7 µM. In addition, the TGI in the test on NCI-H226 lung is greater than 100 µM; with MALME-3M melanoma it was 61 µM; in the test on EKVX NSCLC, greater than 100 µM; in the test on SF-268 CNS, greater than 100 µM; with SF-539 CNS, 57.4 µM; in the test on NCI-H460 lung, greater than 100 µM.
Consider `CC(C)(O)C1OCC(C2CCC3(C)C4=CCC5C(C)(C)C(O)CCC5(C)C4CCC23C)CC1O` (stereo unspecified), for which the TGI with NCI-H226 lung was 27.9 µM; in the test with MALME-3M melanoma it was 39.5 µM; in the test with EKVX NSCLC it was 32.3 µM; with SF-268 CNS, 30.4 µM; in the test with SF-539 CNS, 26.4 µM; in the test on NCI-H460 lung it was 26.1 µM.
As for `COc1ccc(-c2nc(-c3cn(C)c4ncccc34)cs2)cc1`, the GI50 in the test on NCI-H226 lung is greater than 100 µM; in the test with MALME-3M melanoma, 22.2 µM; in the test with EKVX NSCLC, 17.4 µM; in the test with SF-268 CNS it was 82.6 µM; in the test on SF-539 CNS it was 92.7 µM; in the test with NCI-H460 lung it was 32.9 µM. Moreover, the TGI in the test with NCI-H226 lung, with MALME-3M melanoma, in the test on EKVX NSCLC, in the test on SF-268 CNS, in the test with SF-539 CNS and in the test on NCI-H460 lung was greater than 100 µM each time.
Regarding `COc1ccc(-c2nc(-c3ccccc3)c(-c3ccccc3)n2C2CC2)cc1OC1CCCC1`, the GI50 in the test on NCI-H226 lung is 83.7 µM; with SF-268 CNS, 44.9 µM; in the test on SF-539 CNS it was 90.9 µM; in the test on NCI-H460 lung it was 11 µM. In addition, the TGI with NCI-H226 lung, in the test on SF-268 CNS, in the test with SF-539 CNS and in the test on NCI-H460 lung was greater than 165 µM each time.
Turning to `O=C([CH-]C(=O)c1ccccc1)c1ccccc1.O=C([CH-]C(=O)c1ccccc1)c1ccccc1.[Nd+3].[OH-].[OH3+]`, the GI50 was 1.94 µM with NCI-H226 lung; 12.4 µM with MALME-3M melanoma; 9.99 µM in the test with EKVX NSCLC; 6.51 µM with SF-268 CNS; 15.8 µM with SF-539 CNS; 6.18 µM in the test on NCI-H460 lung. The TGI with NCI-H226 lung was 8.28 µM; in the test with MALME-3M melanoma, 53.2 µM; in the test on EKVX NSCLC, 43.8 µM; with SF-268 CNS it was 34.9 µM; in the test with SF-539 CNS it was 48 µM; with NCI-H460 lung it was 25.3 µM.
On to `CCN(CC)CCCCCCCNc1c2ccc(Cl)cc2nc2ccc(OC)cc12`, for which the GI50 was 1.83 µM in the test with NCI-H226 lung; 2.05 µM in the test with MALME-3M melanoma; 1.51 µM with EKVX NSCLC; 1.03 µM with SF-268 CNS; 0.416 µM with NCI-H460 lung. Moreover, the TGI with NCI-H226 lung came out at 4.42 µM; in the test with MALME-3M melanoma it was 4.1 µM; in the test on EKVX NSCLC, 4.99 µM; with SF-268 CNS, 2.5 µM; in the test on NCI-H460 lung, 1.67 µM.
